In paper PMC10327353 (Breast Cancer Research : BCR, 2023):

Assay: Phase 1 study: safety and tolerability
Assay type: in vivo
Experimental: The maximum tolerated dose (MTD) of DZD1516 was defined based on safety data and the Bayesian optimal interval (BOIN) design (Additional file 1). The definition of DLT is provided in Additional file 1.
The AE grading was assessed according to the NCI-Common Terminology Criteria for Adverse Events (CTCAE) (version 5.0) and was monitored until 28 days after the last dose.
Eligible patients received single oral dosing of DZD1516 on Cycle 0 Day 1 (C0D1), followed by a 7-day washout. Twice daily oral dosing (bid) of DZD1516 was commenced from C1D1 in a continuous 21-day cycle until disease progression, unacceptable toxicity, or withdrawal of consent. All doses were taken under fed conditions (within 30 minutes after a meal).
Planned dosing consisted of 25, 50, 100, 200, 300, and 400 mg. Each dose escalation cohort will comprise a minimum of three and a maximum of six evaluable patients (except only one patient in the starting dose cohort). The maximum tolerated dose of DZD1516 was defined according to safety data and the Bayesian optimal interval (BOIN) design. Dose escalation/de-escalation rule with target toxicity rate for the MTD is 0.30 with interval of (0.20, 0.33).
DLTs were any adverse event (AE) not clearly attributable to the patient’s disease, including ≥ grade 4 hematological toxicities present for ≥ 4 days, grade 3 thrombocytopenia with bleeding, or grade 4 thrombocytopenia lasting for > 5 days, ≥ grade 3 non-hematological toxicities that is dose-limiting in the judgment of the investigators. Any other toxicity that is greater than that at baseline, is clinically significant or unacceptable, and is judged to be a DLT by the SRC. Exceptions included alopecia of any grade and isolated grade 3 laboratory change without clinical sequelae or clinical significance.
Safety evaluations were conducted at screening, on Day 1, 8, and 15 of Cycle 1, on Day 1 of each subsequent treatment cycle, at the end-of-treatment visit, and clinically indicated. Safety assessments included clinical laboratory measurements (hematology, chemistry, coagulation, and urinalysis), electrocardiogram (ECG), Echocardiogram/MUGA scan, ECOG performance status, vital signs, and physical examinations.

COc1cc(O[C@H]2CCN(C)CC2(F)F)c2c(Nc3ccc(Oc4ccn5ncnc5c4)c(C)c3)ncnc2c1 [DZD1516]
Headache, ≥ Grade 3 (200 mg (N = 5)): 0 (0.0) n (%)
Hemoglobin decreased, Any Grade (200 mg (N = 5)): 3 (60.0) n (%)
Hemoglobin decreased, ≥ Grade 3 (200 mg (N = 5)): 0 (0.0) n (%)
Investigations, Any Grade (200 mg (N = 5)): 4 (80.0) n (%)
Investigations, ≥ Grade 3 (200 mg (N = 5)): 1 (20.0) n (%)
Lipase increased, Any Grade (200 mg (N = 5)): 1 (20.0) n (%)
Lipase increased, ≥ Grade 3 (200 mg (N = 5)): 0 (0.0) n (%)
Malaise, Any Grade (200 mg (N = 5)): 1 (20.0) n (%)
Malaise, ≥ Grade 3 (200 mg (N = 5)): 0 (0.0) n (%)
Metabolism and nutrition disorders, Any Grade (200 mg (N = 5)): 3 (60.0) n (%)
Metabolism and nutrition disorders, ≥ Grade 3 (200 mg (N = 5)): 0 (0.0) n (%)
Musculoskeletal and connective tissue disorders, Any Grade (200 mg (N = 5)): 0 (0.0) n (%)
Musculoskeletal and connective tissue disorders, ≥ Grade 3 (200 mg (N = 5)): 0 (0.0) n (%)
Nausea, Any Grade (200 mg (N = 5)): 1 (20.0) n (%)
Nausea, ≥ Grade 3 (200 mg (N = 5)): 0 (0.0) n (%)
Nervous system disorders, Any Grade (200 mg (N = 5)): 2 (40.0) n (%)
Nervous system disorders, ≥ Grade 3 (200 mg (N = 5)): 0 (0.0) n (%)
Participants with any TEAE, Any Grade (200 mg (N = 5)): 5 (100.0) n (%)
Participants with any TEAE, ≥ Grade 3 (200 mg (N = 5)): 1 (20.0) n (%)
Platelet count decreased, Any Grade (200 mg (N = 5)): 1 (20.0) n (%)
Platelet count decreased, ≥ Grade 3 (200 mg (N = 5)): 0 (0.0) n (%)
Proteinuria, Any Grade (200 mg (N = 5)): 2 (40.0) n (%)
Proteinuria, ≥ Grade 3 (200 mg (N = 5)): 0 (0.0) n (%)
Renal and urinary disorders, Any Grade (200 mg (N = 5)): 2 (40.0) n (%)
Renal and urinary disorders, ≥ Grade 3 (200 mg (N = 5)): 0 (0.0) n (%)
Subjects with any TEAE (200 mg (N = 5)): 5 (100.0) n (%)
Subjects with any drug-related TEAE (200 mg (N = 5)): 5 (100.0) n (%)
Vomiting, Any Grade (200 mg (N = 5)): 3 (60.0) n (%)
Vomiting, ≥ Grade 3 (200 mg (N = 5)): 0 (0.0) n (%)
White blood cell count decreased, Any Grade (200 mg (N = 5)): 0 (0.0) n (%)
White blood cell count decreased, ≥ Grade 3 (200 mg (N = 5)): 0 (0.0) n (%)
Alanine aminotransferase increased, Any Grade (250 mg (N = 5)): 1 (20.0) n (%)
Alanine aminotransferase increased, ≥ Grade 3 (250 mg (N = 5)): 0 (0.0) n (%)
Anemia, Any Grade (250 mg (N = 5)): 1 (20.0) n (%)
Anemia, ≥ Grade 3 (250 mg (N = 5)): 0 (0.0) n (%)
Any TEAE: Grade 3 (250 mg (N = 5)): 1 (20.0) n (%)
Any TEAE: Leading to death (250 mg (N = 5)): 0 (0.0) n (%)
Any TEAE: Leading to dose reduction (250 mg (N = 5)): 0 (0.0) n (%)
Any TEAE: Leading to treatment discontinuation (250 mg (N = 5)): 0 (0.0) n (%)
Any TEAE: Leading to treatment interruption (250 mg (N = 5)): 1 (20.0) n (%)
Any TEAE: SAE (250 mg (N = 5)): 1 (20.0) n (%)
Aspartate aminotransferase increased, Any Grade (250 mg (N = 5)): 2 (40.0) n (%)
Aspartate aminotransferase increased, ≥ Grade 3 (250 mg (N = 5)): 0 (0.0) n (%)
Blood and lymphatic system disorders, Any Grade (250 mg (N = 5)): 1 (20.0) n (%)
Blood and lymphatic system disorders, ≥ Grade 3 (250 mg (N = 5)): 0 (0.0) n (%)
Blood bilirubin increased, Any Grade (250 mg (N = 5)): 1 (20.0) n (%)
Blood bilirubin increased, ≥ Grade 3 (250 mg (N = 5)): 0 (0.0) n (%)
Cardiac disorders, Any Grade (250 mg (N = 5)): 2 (40.0) n (%)
Cardiac disorders, ≥ Grade 3 (250 mg (N = 5)): 0 (0.0) n (%)
Constipation, Any Grade (250 mg (N = 5)): 0 (0.0) n (%)
Constipation, ≥ Grade 3 (250 mg (N = 5)): 0 (0.0) n (%)
Decreased appetite, Any Grade (250 mg (N = 5)): 0 (0.0) n (%)
Decreased appetite, ≥ Grade 3 (250 mg (N = 5)): 0 (0.0) n (%)
Dizziness, Any Grade (250 mg (N = 5)): 1 (20.0) n (%)
Dizziness, ≥ Grade 3 (250 mg (N = 5)): 0 (0.0) n (%)
Drug-related TEAE: Grade 3 (250 mg (N = 5)): 0 (0.0) n (%)
Drug-related TEAE: Leading to death (250 mg (N = 5)): 0 (0.0) n (%)
Drug-related TEAE: Leading to dose reduction (250 mg (N = 5)): 0 (0.0) n (%)
Drug-related TEAE: Leading to treatment discontinuation (250 mg (N = 5)): 0 (0.0) n (%)
Drug-related TEAE: Leading to treatment interruption (250 mg (N = 5)): 0 (0.0) n (%)
Drug-related TEAE: SAE (250 mg (N = 5)): 0 (0.0) n (%)
Fatigue, Any Grade (250 mg (N = 5)): 1 (20.0) n (%)
Fatigue, ≥ Grade 3 (250 mg (N = 5)): 0 (0.0) n (%)
Gastrointestinal disorders, Any Grade (250 mg (N = 5)): 1 (20.0) n (%)
Gastrointestinal disorders, ≥ Grade 3 (250 mg (N = 5)): 1 (20.0) n (%)
General disorders and administration site conditions, Any Grade (250 mg (N = 5)): 2 (40.0) n (%)
General disorders and administration site conditions, ≥ Grade 3 (250 mg (N = 5)): 0 (0.0) n (%)
Headache, Any Grade (250 mg (N = 5)): 2 (40.0) n (%)
Headache, ≥ Grade 3 (250 mg (N = 5)): 0 (0.0) n (%)
Hemoglobin decreased, Any Grade (250 mg (N = 5)): 2 (40.0) n (%)
Hemoglobin decreased, ≥ Grade 3 (250 mg (N = 5)): 0 (0.0) n (%)
Investigations, Any Grade (250 mg (N = 5)): 2 (40.0) n (%)
Investigations, ≥ Grade 3 (250 mg (N = 5)): 0 (0.0) n (%)
Lipase increased, Any Grade (250 mg (N = 5)): 0 (0.0) n (%)
Lipase increased, ≥ Grade 3 (250 mg (N = 5)): 0 (0.0) n (%)
Malaise, Any Grade (250 mg (N = 5)): 1 (20.0) n (%)
Malaise, ≥ Grade 3 (250 mg (N = 5)): 0 (0.0) n (%)
Metabolism and nutrition disorders, Any Grade (250 mg (N = 5)): 1 (20.0) n (%)
Metabolism and nutrition disorders, ≥ Grade 3 (250 mg (N = 5)): 0 (0.0) n (%)
Musculoskeletal and connective tissue disorders, Any Grade (250 mg (N = 5)): 3 (60.0) n (%)
Musculoskeletal and connective tissue disorders, ≥ Grade 3 (250 mg (N = 5)): 1 (20.0) n (%)
Nausea, Any Grade (250 mg (N = 5)): 1 (20.0) n (%)
Nausea, ≥ Grade 3 (250 mg (N = 5)): 0 (0.0) n (%)
Nervous system disorders, Any Grade (250 mg (N = 5)): 4 (80.0) n (%)
Nervous system disorders, ≥ Grade 3 (250 mg (N = 5)): 0 (0.0) n (%)
Participants with any TEAE, Any Grade (250 mg (N = 5)): 5 (100.0) n (%)
Participants with any TEAE, ≥ Grade 3 (250 mg (N = 5)): 1 (20.0) n (%)
Platelet count decreased, Any Grade (250 mg (N = 5)): 0 (0.0) n (%)
Platelet count decreased, ≥ Grade 3 (250 mg (N = 5)): 0 (0.0) n (%)
Proteinuria, Any Grade (250 mg (N = 5)): 0 (0.0) n (%)
Proteinuria, ≥ Grade 3 (250 mg (N = 5)): 0 (0.0) n (%)
Renal and urinary disorders, Any Grade (250 mg (N = 5)): 0 (0.0) n (%)
Renal and urinary disorders, ≥ Grade 3 (250 mg (N = 5)): 0 (0.0) n (%)
Subjects with any TEAE (250 mg (N = 5)): 5 (100.0) n (%)
Subjects with any drug-related TEAE (250 mg (N = 5)): 4 (80.0) n (%)
Vomiting, Any Grade (250 mg (N = 5)): 0 (0.0) n (%)
Vomiting, ≥ Grade 3 (250 mg (N = 5)): 0 (0.0) n (%)
White blood cell count decreased, Any Grade (250 mg (N = 5)): 2 (40.0) n (%)
White blood cell count decreased, ≥ Grade 3 (250 mg (N = 5)): 0 (0.0) n (%)
dose-limiting toxicities (DLTs) (250 mg cohort): none of the patients in the 250 mg cohort experiencing DLTs
Alanine aminotransferase increased, Any Grade (300 mg (N = 4)): 1 (25.0) n (%)
Alanine aminotransferase increased, ≥ Grade 3 (300 mg (N = 4)): 0 (0.0) n (%)
Anemia, Any Grade (300 mg (N = 4)): 0 (0.0) n (%)
Anemia, ≥ Grade 3 (300 mg (N = 4)): 0 (0.0) n (%)
Any TEAE: Grade 3 (300 mg (N = 4)): 3 (75.0) n (%)
Any TEAE: Leading to death (300 mg (N = 4)): 0 (0.0) n (%)
Any TEAE: Leading to dose reduction (300 mg (N = 4)): 3 (75.0) n (%)
Any TEAE: Leading to treatment discontinuation (300 mg (N = 4)): 1 (25.0) n (%)
Any TEAE: Leading to treatment interruption (300 mg (N = 4)): 3 (75.0) n (%)
Any TEAE: SAE (300 mg (N = 4)): 0 (0.0) n (%)
Aspartate aminotransferase increased, Any Grade (300 mg (N = 4)): 1 (25.0) n (%)
Aspartate aminotransferase increased, ≥ Grade 3 (300 mg (N = 4)): 0 (0.0) n (%)
Blood and lymphatic system disorders, Any Grade (300 mg (N = 4)): 0 (0.0) n (%)
Blood and lymphatic system disorders, ≥ Grade 3 (300 mg (N = 4)): 0 (0.0) n (%)
Blood bilirubin increased, Any Grade (300 mg (N = 4)): 0 (0.0) n (%)
Blood bilirubin increased, ≥ Grade 3 (300 mg (N = 4)): 0 (0.0) n (%)
Cardiac disorders, Any Grade (300 mg (N = 4)): 0 (0.0) n (%)
Cardiac disorders, ≥ Grade 3 (300 mg (N = 4)): 0 (0.0) n (%)
Constipation, Any Grade (300 mg (N = 4)): 1 (25.0) n (%)
Constipation, ≥ Grade 3 (300 mg (N = 4)): 0 (0.0) n (%)
Decreased appetite, Any Grade (300 mg (N = 4)): 3 (75.0) n (%)
